Tested on: RA patients
Assay: [HDL] determination, Study 2 (RA patients, monotherapy)
Format: in vivo, human
Description: Randomized, double-blind, placebo-controlled, multicenter, phase IIb dose finding study of Compound 1 (dosed as a [Compound 1:HCl:3H2O]) administered for 24 weeks as monotherapy to subjects with moderately to severely active rheumatoid arthritis who have an inadequate response to methotrexate alone
Double-blind, placebo-controlled, monotherapy study in subjects with moderately to severely active RA who have an inadequate response to methotrexate (MTX) (oral or parenteral).
280 subjects randomized to one of 3 doses of Compound 1 (dosed as a [Compound 1:HCl:3H2O]) or to placebo, given once daily (q.d.).
Twelve weeks of treatment with Compound 1 (dosed as a [Compound 1:HCl:3H2O]) at 50 mg, 100 mg, or 200 mg q.d.; or placebo. At Week 12, all subjects on placebo and the subjects on the 50 mg dose who have not achieved 20% improvement in swollen joint count (SJC66) and tender joint count (TJC68) will be assigned to 100 mg q.d. in a blinded fashion and will continue treatment until Week 24. Subjects in the other groups will maintain their randomized treatment until Week 24.
This assay relies on a homogeneous enzymatic colorimetric test. In the presence of magnesium ions, dextran sulfate selectively forms water-soluble complexes with LDL, VLDL and chylomicrons which are resistant to PEG-modified enzymes.
The cholesterol concentration of [HDL]-cholesterol is determined enzymatically by cholesterol esterase and cholesterol oxidase coupled with PEG to the amino groups (approx. 40%).
In the presence of peroxidase, the hydrogen peroxide generated reacts with 4-amino-antipyrine and Sodium N-(2-hydroxy-3-sulfopropyl)-3,5-dimethoxyaniline (HSDA) to form a purple-blue dye. The color intensity of this dye is directly proportional to the cholesterol concentration and is measured photometrically.
Human serum and plasma samples [HDL] determination was done on a Roche/Hitachi Cobas c 701/702 system which automatically calculate the analyte concentration of each sample. Samples containing precipitates are centrifuged before performing the assay.

[1] = placebo switching to 100 mg q.d. at week 12 (N = 72), week 16
[2] = placebo switching to 100 mg q.d. at week 12 (N = 72), week 20
[3] = placebo switching to 100 mg q.d. at week 12 (N = 72), week 24
[4] = placebo switching to 100 mg q.d. at week 12, week 16
[5] = placebo switching to 100 mg q.d. at week 12, week 20
[6] = placebo switching to 100 mg q.d. at week 12, week 24

O=C(Nc1nc2cccc(-c3ccc(CN4CCS(=O)(=O)CC4)cc3)n2n1)C1CC1 [Compound 1, cyclopropanecarboxylic acid {5-[4-(1,1-dioxo-thiomorpholin-4-ylmethyl)-phenyl]-[1,2,4]triazolo[1,5-a]pyridin-2yl}-amide]
[HDL] Mean CFB - 24 weeks results (100 mg q.d. (N = 70), week 8): 0.17 mmol/L
[HDL] Median CFB (100 mg q.d. (N = 70), week 8): 0.140 mmol/L
[HDL] Median CFB - 24 weeks results (100 mg q.d. (N = 70), week 8): 0.14 mmol/L
[HDL] Mean CFB (100 mg q.d. (N = 70), week 12): 0.190 mmol/L
[HDL] Mean CFB - 24 weeks results (100 mg q.d. (N = 70), week 12): 0.19 mmol/L
[HDL] Median CFB (100 mg q.d. (N = 70), week 12): 0.150 mmol/L
[HDL] Median CFB - 24 weeks results (100 mg q.d. (N = 70), week 12): 0.15 mmol/L
[HDL] Mean CFB - 24 weeks results (100 mg q.d. (N = 70), week 16): 0.23 mmol/L
[HDL] Median CFB - 24 weeks results (100 mg q.d. (N = 70), week 16): 0.20 mmol/L
[HDL] Mean CFB - 24 weeks results (100 mg q.d. (N = 70), week 20): 0.19 mmol/L
[HDL] Median CFB - 24 weeks results (100 mg q.d. (N = 70), week 20): 0.17 mmol/L
[HDL] Mean CFB - 24 weeks results (100 mg q.d. (N = 70), week 24): 0.18 mmol/L
[HDL] Median CFB - 24 weeks results (100 mg q.d. (N = 70), week 24): 0.18 mmol/L
[HDL] Mean percentage CFB - 12 weeks results (100 mg q.d., week 1): 7.49%
[HDL] Mean percentage CFB - 24 weeks results (100 mg q.d., week 1): 7.49%
[HDL] Median percentage CFB - 12 weeks results (100 mg q.d., week 1): 3.27%
[HDL] Mean percentage CFB - 12 weeks results (100 mg q.d., week 2): 11.30%
[HDL] Mean percentage CFB - 24 weeks results (100 mg q.d., week 2): 11.30%
[HDL] Median percentage CFB - 12 weeks results (100 mg q.d., week 2): 8.75%
[HDL] Mean percentage CFB - 12 weeks results (100 mg q.d., week 4): 15.65%
[HDL] Mean percentage CFB - 24 weeks results (100 mg q.d., week 4): 15.65%
[HDL] Median percentage CFB - 12 weeks results (100 mg q.d., week 4): 12.66%
[HDL] Mean percentage CFB - 12 weeks results (100 mg q.d., week 8): 13.77%
[HDL] Mean percentage CFB - 24 weeks results (100 mg q.d., week 8): 13.77%
[HDL] Median percentage CFB - 12 weeks results (100 mg q.d., week 8): 9.33%
[HDL] Mean percentage CFB - 12 weeks results (100 mg q.d., week 12): 15.23%
[HDL] Mean percentage CFB - 24 weeks results (100 mg q.d., week 12): 15.23%
[HDL] Median percentage CFB - 12 weeks results (100 mg q.d., week 12): 11.86%
[HDL] Median percentage CFB - 24 weeks results (100 mg q.d., week 16): 14.81%
[HDL] Mean percentage CFB - 24 weeks results (100 mg q.d., week 20): 14.51%
[HDL] Median percentage CFB - 24 weeks results (100 mg q.d., week 20): 13.29%
[HDL] Mean percentage CFB - 24 weeks results (100 mg q.d., week 24): 15.18%
[HDL] Median percentage CFB - 24 weeks results (100 mg q.d., week 24): 12.54%
[HDL] Mean CFB (200 mg q.d. (N = 69), week 1): 0.026 mmol/L
[HDL] Mean CFB - 24 weeks results (200 mg q.d. (N = 69), week 1): 0.03 mmol/L
[HDL] Median CFB (200 mg q.d. (N = 69), week 1): 0.030 mmol/L
[HDL] Median CFB - 24 weeks results (200 mg q.d. (N = 69), week 1): 0.03 mmol/L
[HDL] Mean CFB (200 mg q.d. (N = 69), week 2): 0.163 mmol/L
[HDL] Mean CFB - 24 weeks results (200 mg q.d. (N = 69), week 2): 0.16 mmol/L
[HDL] Median CFB (200 mg q.d. (N = 69), week 2): 0.150 mmol/L
[HDL] Median CFB - 24 weeks results (200 mg q.d. (N = 69), week 2): 0.15 mmol/L
[HDL] Mean CFB (200 mg q.d. (N = 69), week 4): 0.220 mmol/L
[HDL] Mean CFB - 24 weeks results (200 mg q.d. (N = 69), week 4): 0.22 mmol/L
[HDL] Median CFB (200 mg q.d. (N = 69), week 4): 0.210 mmol/L
[HDL] Median CFB - 24 weeks results (200 mg q.d. (N = 69), week 4): 0.21 mmol/L
[HDL] Mean CFB (200 mg q.d. (N = 69), week 8): 0.219 mmol/L
[HDL] Mean CFB - 24 weeks results (200 mg q.d. (N = 69), week 8): 0.22 mmol/L
[HDL] Median CFB (200 mg q.d. (N = 69), week 8): 0.200 mmol/L
[HDL] Median CFB - 24 weeks results (200 mg q.d. (N = 69), week 8): 0.20 mmol/L
[HDL] Mean CFB (200 mg q.d. (N = 69), week 12): 0.194 mmol/L
[HDL] Mean CFB - 24 weeks results (200 mg q.d. (N = 69), week 12): 0.19 mmol/L
[HDL] Median CFB (200 mg q.d. (N = 69), week 12): 0.150 mmol/L
[HDL] Median CFB - 24 weeks results (200 mg q.d. (N = 69), week 12): 0.15 mmol/L
[HDL] Mean CFB - 24 weeks results (200 mg q.d. (N = 69), week 16): 0.19 mmol/L
[HDL] Median CFB - 24 weeks results (200 mg q.d. (N = 69), week 16): 0.16 mmol/L
[HDL] Mean CFB - 24 weeks results (200 mg q.d. (N = 69), week 20): 0.21 mmol/L
[HDL] Median CFB - 24 weeks results (200 mg q.d. (N = 69), week 20): 0.16 mmol/L
[HDL] Mean CFB - 24 weeks results (200 mg q.d. (N = 69), week 24): 0.19 mmol/L
[HDL] Median CFB - 24 weeks results (200 mg q.d. (N = 69), week 24): 0.16 mmol/L
[HDL] Mean percentage CFB - 12 weeks results (200 mg q.d., week 1): 2.04%
[HDL] Mean percentage CFB - 24 weeks results (200 mg q.d., week 1): 2.04%
[HDL] Median percentage CFB - 12 weeks results (200 mg q.d., week 1): 2.50%
[HDL] Mean percentage CFB - 12 weeks results (200 mg q.d., week 2): 11.20%
[HDL] Mean percentage CFB - 24 weeks results (200 mg q.d., week 2): 11.20%
[HDL] Median percentage CFB - 12 weeks results (200 mg q.d., week 2): 9.92%
[HDL] Mean percentage CFB - 12 weeks results (200 mg q.d., week 4): 15.68%
[HDL] Mean percentage CFB - 24 weeks results (200 mg q.d., week 4): 15.68%
[HDL] Median percentage CFB - 12 weeks results (200 mg q.d., week 4): 14.18%
[HDL] Mean percentage CFB - 12 weeks results (200 mg q.d., week 8): 15.24%
[HDL] Mean percentage CFB - 24 weeks results (200 mg q.d., week 8): 15.24%
[HDL] Median percentage CFB - 12 weeks results (200 mg q.d., week 8): 16.35%
[HDL] Mean percentage CFB - 12 weeks results (200 mg q.d., week 12): 14.60%
[HDL] Mean percentage CFB - 24 weeks results (200 mg q.d., week 12): 14.60%
[HDL] Median percentage CFB - 12 weeks results (200 mg q.d., week 12): 12.00%
[HDL] Mean percentage CFB - 24 weeks results (200 mg q.d., week 16): 13.07%
[HDL] Mean percentage CFB - 24 weeks results (200 mg q.d., week 20): 15.18%
[HDL] Median percentage CFB - 24 weeks results (200 mg q.d., week 20): 11.54%
[HDL] Mean percentage CFB - 24 weeks results (200 mg q.d., week 24): 13.79%
[HDL] Median percentage CFB - 24 weeks results (200 mg q.d., week 24): 11.96%
[HDL] Mean CFB - 24 weeks results [1]: 0.19 mmol/L
[HDL] Median CFB - 24 weeks results [1]: 0.16 mmol/L
[HDL] Mean CFB - 24 weeks results [2]: 0.19 mmol/L
[HDL] Median CFB - 24 weeks results [2]: 0.18 mmol/L
[HDL] Mean CFB - 24 weeks results [3]: 0.16 mmol/L
[HDL] Median CFB - 24 weeks results [3]: 0.15 mmol/L
[HDL] Mean percentage CFB - 24 weeks results [4]: 16.36%
[HDL] Median percentage CFB - 24 weeks results [4]: 10.82%
[HDL] Mean percentage CFB - 24 weeks results [5]: 16.02%
[HDL] Median percentage CFB - 24 weeks results [5]: 13.11%
[HDL] Mean percentage CFB - 24 weeks results [6]: 13.47%
[HDL] Median percentage CFB - 24 weeks results [6]: 11.36%
